The values that follow come from publication PMC4360222 (International Journal of Neuropsychopharmacology, 2015).

For assay [1], the target named is T1, D2-like autoreceptors (rat brain striatal minces, [3H]-DA synthesis) (Rattus norvegicus, UniProt P61169). Kind of assay: cell-based.
The test system of the next assay is D2 receptors. The following applies: ref Clark et al., 1985; Burris et al., 2002; Tadori et al., 2005; cited from earlier work.
Assay [2] deals with T1, D2-like autoreceptors (rat brain striatal minces, [3H]-DA synthesis).

Where two headings read alike, the source gives them in different places.

T1 sequence (P61169 1-415 isoform P61169-2): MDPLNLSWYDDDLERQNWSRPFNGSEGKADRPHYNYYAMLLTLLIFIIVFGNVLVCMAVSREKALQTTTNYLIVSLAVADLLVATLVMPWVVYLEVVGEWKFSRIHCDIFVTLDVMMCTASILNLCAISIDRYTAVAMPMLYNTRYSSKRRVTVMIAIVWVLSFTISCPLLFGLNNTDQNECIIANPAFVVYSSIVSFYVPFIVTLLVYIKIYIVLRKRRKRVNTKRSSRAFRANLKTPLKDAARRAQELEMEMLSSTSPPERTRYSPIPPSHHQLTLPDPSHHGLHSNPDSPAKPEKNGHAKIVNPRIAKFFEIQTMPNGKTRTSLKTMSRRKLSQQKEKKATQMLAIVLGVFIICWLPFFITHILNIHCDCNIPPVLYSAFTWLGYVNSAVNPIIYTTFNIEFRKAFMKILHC

On to `CCCN1CCC[C@@H](c2cccc(O)c2)C1` [Preclamol (S-(-)-PPP), (-)-3-(3-hydroxyphenyl)-N-n-propylpiperidine], for which the Emax is 34% in assay [1] (read-out: Emax, inhibition of [3H]-dopamine synthesis, basal 2mM K+); 31% in assay [1] (read-out: Emax, inhibition of [3H]-dopamine synthesis, stimulated 15mM K+); -34% in assay [1] (read-out: maximal effect on DA synthesis, 2mM K+); -31% in assay [1] (read-out: maximal effect on DA synthesis, 15mM K+). For the same molecule, the “reported affinity for D2 receptors” value with D2 receptors is “high-nanomolar/low-micromolar range”.
On to `CCN1CCC[C@H]1CNC(=O)c1cc(S(N)(=O)=O)ccc1OC` [sulpiride, (S)-(-)-sulpiride], for which, in assay [2] (2mM K+, data not shown), the “blockade of QUIN decrease of DA synthesis by antagonist” value is listed as “totally blocked”. For the same molecule, the “reversal of decrease in DA synthesis elicited by 1nM S-(-)-PPP” value in assay [2] (sulpiride 100nM) is “completely reversed”. In addition, in assay [2] (sulpiride 1 µM, 2mM K+), the “blockade of effect of ARI 1 µM on DA synthesis” value is “partially blocked” and the “blockade of inhibitory effect of ARI 10nM on DA synthesis” value is listed as “fully eliminated”.
